Here are results for 22 compounds from patent US11267800B2, “Cyclohexyl acid triazole azines as LPA antagonists” (BRISTOL-MYERS SQUIBB COMPANY, priority 2017, dated 2022).

pIC50: −log10 of the molar value.

T1 sequence (Q92633 whole entry): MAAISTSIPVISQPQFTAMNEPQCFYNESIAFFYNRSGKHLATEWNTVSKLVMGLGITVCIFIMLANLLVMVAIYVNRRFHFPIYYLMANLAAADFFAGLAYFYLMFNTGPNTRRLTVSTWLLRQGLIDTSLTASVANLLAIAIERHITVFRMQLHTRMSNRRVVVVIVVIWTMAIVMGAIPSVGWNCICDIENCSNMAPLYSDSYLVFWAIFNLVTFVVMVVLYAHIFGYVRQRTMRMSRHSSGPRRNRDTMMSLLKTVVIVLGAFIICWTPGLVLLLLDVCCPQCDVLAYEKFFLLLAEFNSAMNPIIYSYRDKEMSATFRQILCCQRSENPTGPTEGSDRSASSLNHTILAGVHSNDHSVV

One assay has as its system pancreatic cancer cell lines.
Experiment: not given
To be noted: highly peritoneal metastatic pancreatic cancer cell line (Yamada et al.); cited from earlier work.
Turning to `Cc1noc(-c2ccc(CSCCC(=O)O)cc2)c1NC(=O)OC(C)c1ccccc1Cl` (centres unmarked) [Ki16425], the “LPA-induced and ascites-induced invasion activity” value is reported as “blocked”.

Still in this assay, the particulars now being: pancreatic cancer cell lines (Yamada et al.); cited from earlier work.
For the compound `Cc1noc(-c2ccc(CSCCC(=O)O)cc2)c1NC(=O)OC(C)c1ccccc1Cl` (centres unmarked) [Ki16425], the “in vitro migration in response to LPA and peritoneal fluid (ascites) from pancreatic cancer patients” value is “effectively blocked”.

Another assay concerns the target T1, human LPA1 (Homo sapiens, UniProt Q92633).
T1 construct: expressed in transfected cells; host or cells: Chinese hamster ovary (CHO) cells
The assay is described as follows: LPA1 functional antagonist assay (calcium flux). The following applies: CHO cells overexpressing human LPA1; inhibition of calcium flux induced by 10 nM LPA; read-out: hLPA1 IC50. Format: cell-based. The essentials: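 IC50 values come from 4-parameter logistic fits and mark 50% block of the calcium flux evoked by 10 nM LPA. Human LPA1-overexpressing CHO cells were calcium-dye loaded at 37 °C, then given test compound (0.08 nM–5 μM, 0.5% DMSO, HEPES-buffered HBSS with 0.1% fatty-acid-free BSA) for 20 min at room temperature before agonist.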
For orientation: Calcium assays in cells follow changes in intracellular calcium, usually with a dye or a luminescent sensor.
`CCCc1ncnc(NCc2c(-c3ccc(O[C@H]4CCC[C@H](C(=O)O)C4)c(C)n3)nnn2C)n1` [Example 195, (1S,3S)-3-((2-Methyl-6-(1-methyl-5-(((4-propyl-1,3,5-triazin-2-yl)amino)methyl)-1H-1,2,3-triazol-4-yl)pyridin-3-yl)oxy)cyclohexane-1-carboxylic acid]: the pIC50 is 6.65.
Turning to `COC(=O)c1cc(C2CCC2)nc(NCc2c(-c3ccc(O[C@H]4CCC[C@H](C(=O)O)C4)c(C)n3)nnn2C)n1` [Example 163], the pIC50 was 6.77.
For `CCc1cc(OCc2c(-c3ccc(O[C@H]4CCC[C@H](C(=O)O)C4)c(C)n3)nnn2C)ncn1` [Example 256, (1S,3S)-3-((6-(5-(((6-ethylpyrimidin-4-yl)oxy)methyl)-1-methyl-1H-1,2,3-triazol-4-yl)-2-methylpyridin-3-yl)oxy)cyclohexane-1-carboxylic acid], the pIC50 is 7.66.
Still for that read-out and setting: the value for `Cc1nc(-c2nnn(C)c2CNc2nccc(C3(C)CC(F)(F)C3)n2)ccc1O[C@H]1CCC[C@H](C(=O)O)C1` [Example 167] was 7.26; that for `Cc1nc(-c2nnn(C)c2CNc2nccc(C(C)C)n2)ccc1O[C@H]1CCC[C@H](C(=O)O)C1` [Example 8] was 8.00; that for `Cc1nc(-c2nnn(C)c2CNc2ncnc(-c3ccccc3)n2)ccc1O[C@H]1CCC[C@H](C(=O)O)C1` [Example 3, (1S,3S)-3-((2-Methyl-6-(1-methyl-5-(((4-phenyl-1,3,5-triazin-2-yl)amino)methyl)-1H-1,2,3-triazol-4-yl)pyridin-3-yl)oxy)cyclohexanecarboxylic acid] was 6.92.
On the same count and under the same terms, the value for `CCCc1cccc(Nc2c(-c3ccc(O[C@H]4CCC[C@H](C(=O)O)C4)cn3)nnn2C)n1` [Example 244, (1S,3S)-3-((6-(1-methyl-5-((6-propylpyridin-2-yl)amino)-1H-1,2,3-triazol-4-yl)pyridin-3-yl)oxy) cyclohexane-1-carboxylic acid] was 7.37; that for `COCCCCOc1ccnc(NCc2c(-c3ccc(O[C@H]4CCC[C@H](C(=O)O)C4)c(C)n3)nnn2C)n1` [Example 87] was 7.11.
With `Cc1nc(-c2nnn(C)c2CNc2nccc(C(C)(C)C)n2)ccc1O[C@H]1CCC[C@H](C(=O)O)C1` [Example 1, (1S,3S)-3-((6-(5-(((4-(tert-Butyl)pyrimidin-2-yl)amino)methyl)-1-methyl-1H-1,2,3-triazol-4-yl)-2-methylpyridin-3-yl)oxy)cyclohexanecarboxylic acid], the pIC50 was 7.59.
The same measure, in the same setting: for `Cc1nc(-c2nnn(C)c2CNc2ncc(F)c(Nc3ccccc3)n2)ccc1O[C@H]1CCC[C@H](C(=O)O)C1` [Example 54] the value was 6.87.
Still for that read-out and setting: the value for `Cc1nc(-c2nnn(C)c2CNc2ncc(F)c(NC3CC3)n2)ccc1O[C@H]1CCC[C@H](C(=O)O)C1` [Example 45] was 6.96; that for `Cc1nc(-c2nnn(C)c2CNc2nccc(COC3CC3)n2)ccc1O[C@H]1CCC[C@H](C(=O)O)C1` [Example 322] was 7.36; that for `COc1cc(NCc2c(-c3ccc(O[C@H]4CCC[C@H](C(=O)O)C4)c(C)n3)nnn2C)ncn1` [Example 24] was 6.66.
On the same count and under the same terms, the value for `Cc1nc(-c2nnn(C)c2CNc2ncc(F)c(N3CCC3)n2)ccc1O[C@H]1CCC[C@H](C(=O)O)C1` [Example 42] was 6.66; that for `Cc1nc(-c2nnn(C)c2CNc2nccc(-c3cnccn3)n2)ccc1O[C@H]1CCC[C@H](C(=O)O)C1` [Example 81] was 7.04.
For `Cc1nc(-c2nnn(C)c2COc2cc(OC3CC3)ccn2)ccc1O[C@H]1CCC[C@H](C(=O)O)C1` [Example 276], the pIC50 is 8.06.
On the same count and under the same terms, the value for `Cc1nc(-c2nnn(C)c2COc2cc(-n3cnnc3C)ncn2)ccc1O[C@H]1CCC[C@H](C(=O)O)C1` [Example 314] was 6.38.
On the same count and under the same terms, for `CCNc1nc(NCc2c(-c3ccc(O[C@H]4CCC[C@H](C(=O)O)C4)c(C)n3)nnn2C)ncc1F` [Example 58] the value was 7.09.
As for `COc1nccc(OCc2c(-c3ccc(O[C@H]4CCC[C@H](C(=O)O)C4)c(C)n3)nnn2C)n1` [Example 344], the pIC50 is 6.42.

The subject of the next assay is mouse epithelial renal cell line, MCT.
Experiment: not given
The following applies: co-treatment with LPA, MCT cells; cited from earlier work.
As for `Cc1noc(-c2ccc(CSCCC(=O)O)cc2)c1NC(=O)OC(C)c1ccccc1Cl` (centres unmarked) [Ki16425], the “LPA-induced increase in expression of CTGF” value is recorded as “almost completely suppressed”.

The subject of a further assay is IPF patients.
Experiment: not given
The following applies: 26-week clinical trial in IPF patients (Palmer et al.); cited from earlier work.
As to `Cc1noc(-c2ccc(-c3ccc(C4(C(=O)O)CC4)cc3)cc2)c1NC(=O)O[C@H](C)c1ccccc1` [BMS-986020], the “rate of FVC (forced vital capacity) decline” value is “significantly reduce”.

The subject of a further assay is UUO mice.
Experiment: not given
To be noted: cited from earlier work.
Turning to `Cc1noc(-c2ccc(CSCCC(=O)O)cc2)c1NC(=O)OC(C)c1ccccc1Cl` (centres unmarked) [Ki16425], the “development of renal fibrosis” value is given as “closely resembled the profile of LPA1 (−/−) mice”.

In another assay the test system is human foetal lung fibroblasts.
Experiment: not given
The following applies: Tager et al.; cited from earlier work.
Regarding `Cc1noc(-c2ccc(CSCCC(=O)O)cc2)c1NC(=O)OC(C)c1ccccc1Cl` (centres unmarked) [Ki16425], the “chemotaxis of human foetal lung fibroblasts induced by BAL from IPF patients” value is on record as “blocked”.

Another assay deals with nerve-injured mice.
Experiment: not given
To be noted: pretreatment, nerve-injured mice (Inoue et al.); cited from earlier work.
For the compound `C[C@@H](N)[C@H]1CC[C@H](C(=O)Nc2ccncc2)CC1` [Example Y-27632], the allodynia and hyperalgesia entry is reported as “completely abolished”.

A word on the pIC50: it is the negative decadic logarithm of the IC50, by convention in mol/L.
